Measurements published in patent publication US20130109682A1, “CYCLIC ETHER COMPOUNDS USEFUL AS KINASE INHIBITORS” (NOVARTIS AG, priority 2010, published 2013).

Columns and labels:
PIM2 = PIM2 (Homo sapiens, UniProt Q9P1W9); experiment: Pim 2 AlphaScreen assay (high ATP); type: biochemical; conditions: read-out: Pim2 IC50
Procedure: Pim1, Pim2, Pim3 AlphaScreen Assay Pim 1, Pim 2 & Pim 3 AlphaScreen assays using high ATP (11-125×ATP Km) were used to determine the biochemical activity of the inhibitors. The activity of Pim 1, Pim 2, & Pim 3 is measured using a homogeneous bead based system quantifying the amount of phosphorylated peptide substrate resulting from kinase-catalyzed phosphoryl transfer to a peptide substrate. Compounds to be tested are dissolved in 100% DMSO and directly distributed to a white 384-well plate at […] per well. To start the reaction, 5 μl of 100 nM Bad peptide (Biotin-AGAGRSRHSSYPAGT —OH) and ATP (concentrations described below) in assay buffer (50 mM Hepes, pH=7.5, 5 mM MgCl2, 0.05% BSA, 0.01% Tween-20, 1 mM DTT) is added to each well. This is followed by the addition of 5 μl/well of Pim 1, Pim 2 or Pim 3 kinase in assay buffer (concentrations described below). Final assay concentrations (described below) are in 2.5% DMSO. The reactions are performed for ˜2 hours, then stopped by the addition of 10 μl of 0.75 μg/ml anti-phospho Ser/Thr antibody (Cell Signaling), 10 μg/ml Protein A AlphaScreen beads (Perkin Elmer), and 10 μg/ml streptavidin coated AlphaScreen beads in stop/detection buffer (50 mM EDTA, 95 mM Tris, pH=7.5, 0.01% Tween-20). The stopped reactions are incubated overnight in the dark. The phosphorylated peptide is detected via an […] initiated chemiluminescence/fluorescence cascade using the Envision plate reader (Perkin Elmer).
IC50, the half maximal inhibitory concentration, represents the concentration of a test compound that is required for 50% inhibition of its target in vitro under the described assay conditions.

[1] = system: KMS11 (human myeloma cell line); experiment: Cell proliferation assay (CellTiter-Glo), KMS11; type: cell-based; conditions: Homo sapiens, KMS-11; KMS11 cells, cell proliferation; read-out: KMS11-Luc EC50
Procedure, shortened: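 EC50 derived from CellTiter-Glo luminescence after 3-day exposure at 37° C. Compound was diluted to 2× in medium and added to an equal volume of cells. KMS11 myeloma cells were plated on assay day at 2000/well in IMDM with 10% FBS and sodium pyruvate.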

GSK3β = GSK3β (Homo sapiens, UniProt P49841); experiment: GSK3β ATP depletion assay; type: biochemical; conditions: ATP depletion assay; read-out: GSK3b IC50
Procedure, shortened: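 Kinase activity is read as ATP consumption: luciferase luminescence reports the ATP remaining once roughly half of the 2 μM ATP is used. Reaction mix: 5 nM GSK3β, 10 μM b-CREB peptide, 50 mM Tris pH 7.5, 15 mM MgCl2, 1 mM DTT, 0.1% BSA, 2.5% DMSO. Enzyme and peptide are preincubated 15 min before ATP is added.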

Sequence of GSK3β (P49841 whole entry, species assumed): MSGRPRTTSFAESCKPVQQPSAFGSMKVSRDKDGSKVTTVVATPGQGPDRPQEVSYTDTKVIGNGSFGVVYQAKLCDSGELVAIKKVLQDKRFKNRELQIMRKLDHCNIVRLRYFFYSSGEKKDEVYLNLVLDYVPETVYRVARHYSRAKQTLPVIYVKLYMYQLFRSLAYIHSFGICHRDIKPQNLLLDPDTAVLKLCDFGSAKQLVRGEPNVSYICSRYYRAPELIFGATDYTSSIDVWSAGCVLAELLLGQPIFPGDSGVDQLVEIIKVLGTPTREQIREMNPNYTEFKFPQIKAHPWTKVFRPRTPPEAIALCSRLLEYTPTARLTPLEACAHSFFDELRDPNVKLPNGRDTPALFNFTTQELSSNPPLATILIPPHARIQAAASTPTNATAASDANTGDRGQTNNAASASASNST
Sequence of PIM2 (Q9P1W9 whole entry): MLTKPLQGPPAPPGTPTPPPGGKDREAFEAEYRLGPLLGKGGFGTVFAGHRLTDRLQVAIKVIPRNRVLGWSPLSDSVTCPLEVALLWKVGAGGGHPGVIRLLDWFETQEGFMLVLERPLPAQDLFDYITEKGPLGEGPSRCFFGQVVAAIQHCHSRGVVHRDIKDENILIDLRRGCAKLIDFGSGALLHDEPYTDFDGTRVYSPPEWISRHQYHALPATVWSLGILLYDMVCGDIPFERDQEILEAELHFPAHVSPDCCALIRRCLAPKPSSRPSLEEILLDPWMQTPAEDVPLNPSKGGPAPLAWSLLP

Structure (SMILES) | IC50 (PIM2) [µM] | EC50 [1] [µM] | IC50 (GSK3β) [µM]
CC(C)[C@H]1O[C@@H](c2ccncc2NC(=O)c2ccnc(-n3ccc(=O)cc3)n2)C[C@@H](N)[C@@H]1O [Example 304, N-(4-((2R,4R,5S,6R)-4-amino-5-hydroxy-6-isopropyltetrahydro-2H-pyran-2-yl)pyridin-3-yl)-2-(4-oxopyridin-1(4H)-yl)pyrimidine-4-carboxamide] | > 25 |  | > 25
CC(C)[C@H]1O[C@@H](c2ccncc2NC(=O)c2ccc(F)c(-c3ccc(S(C)(=O)=O)cc3)n2)C[C@@H](N)[C@@H]1O [Example 306, N-(4-((2R,4R,5S,6R)-4-amino-5-hydroxy-6-isopropyltetrahydro-2H-pyran-2-yl)pyridin-3-yl)-5-fluoro-6-(4-(methylsulfonyl)phenyl)picolinamide] | 1.66 |  | 2.82
CC(C)C(=O)Nc1ccc(F)c(-c2nc(C(=O)Nc3cnccc3[C@H]3C[C@@H](N)[C@H](O)[C@@H](C(C)C)O3)ccc2F)c1F [Example 308, N-(4-((2R,4R,5S,6R)-4-amino-5-hydroxy-6-isopropyltetrahydro-2H-pyran-2-yl)pyridin-3-yl)-6-(2,6-difluoro-3-isobutyramidophenyl)-5-fluoropicolinamide] | 0.0685 |  | 18.3
CC(C)[C@H]1O[C@@H](c2ccncc2NC(=O)c2ccc(F)c(-c3ccccc3)n2)C[C@@H](N)[C@@H]1O [Example 309, N-(4-((2R,4R,5S,6R)-4-amino-5-hydroxy-6-isopropyltetrahydro-2H-pyran-2-yl)pyridin-3-yl)-5-fluoro-6-phenylpicolinamide] | 0.131 |  | 8.12
CC(C)[C@H]1O[C@@H](c2ccncc2NC(=O)c2ccnc(-n3c(F)cccc3=O)n2)C[C@@H](N)[C@@H]1O [Example 310, N-(4-((2R,4R,5S,6R)-4-amino-5-hydroxy-6-isopropyltetrahydro-2H-pyran-2-yl)pyridin-3-yl)-2-(6-fluoro-2-oxopyridin-1(2H)-yl)pyrimidine-4-carboxamide] | 6.94 |  | 3.31
CC(C)[C@H]1O[C@@H](c2ccncc2NC(=O)c2ccc(F)c(-c3cccc(S(C)(=O)=O)c3)n2)C[C@@H](N)[C@@H]1O [Example 312, N-(4-((2R,4R,5S,6R)-4-amino-5-hydroxy-6-isopropyltetrahydro-2H-pyran-2-yl)pyridin-3-yl)-5-fluoro-6-(3-(methylsulfonyl)phenyl)picolinamide] | 2.48 |  | > 25
C[C@H]1O[C@@H](c2ccncc2NC(=O)c2ccc(F)c(N3CCS(=O)(=O)CC3)n2)C[C@@H](N)[C@]1(C)O [Example 335, N-(4-((2R,4R,5S,6R)-4-amino-5-hydroxy-5,6-dimethyltetrahydro-2H-pyran-2-yl)pyridin-3-yl)-6-(1,1-dioxidothiomorpholino)-5-fluoropicolinamide] | > 25 | > 10 | 
CC(C)[C@@H]1C[C@H](N)C[C@H](c2ccncc2NC(=O)c2ccc(F)c(-c3c(F)ccc(C#N)c3F)n2)O1 [Example 337, N-(4-((2R,4S,6S)-4-amino-6-isopropyltetrahydro-2H-pyran-2-yl)pyridin-3-yl)-6-(3-cyano-2,6-difluorophenyl)-5-fluoropicolinamide] | 0.04 | 1.35 | 

Now from value to molecule:

IC50 (PIM2) [µM] | EC50 [1] [µM] | IC50 (GSK3β) [µM] | Structure (SMILES)
0.0623 | 1.09 | 4.25 | C[C@]1(O)[C@H](N)CC(c2ccncc2NC(=O)c2ccc(F)c(-c3c(F)cc(S(C)(=O)=O)cc3F)n2)O[C@@H]1C1CC1 (stereo in doubt) [Example 281, N-(4-((2S,4R,5S,6R)-4-amino-6-cyclopropyl-5-hydroxy-5-methyltetrahydro-2H-pyran-2-yl)pyridin-3-yl)-6-(2,6-difluoro-4-(methylsulfonyl)phenyl)-5-fluoropicolinamide]
0.0153 | 0.31 | 2.84 | CC(C)[C@H]1OC(c2ccncc2NC(=O)c2ccc(F)c(-c3c(F)cc(S(C)(=O)=O)cc3F)n2)C[C@@H](N)[C@@H]1O (stereo in doubt) [Example 305, N-(4-((2S,4R,5S,6R)-4-amino-5-hydroxy-6-isopropyltetrahydro-2H-pyran-2-yl)pyridin-3-yl)-6-(2,6-difluoro-4-(methylsulfonyl)phenyl)-5-fluoropicolinamide]
0.0118 | 0.2 | 2.25 | CC(C)(C)[C@H]1O[C@@H](c2ccncc2NC(=O)c2ccc(F)c(-c3c(F)cc(S(C)(=O)=O)cc3F)n2)C[C@@H](N)[C@@H]1O [Example 280, N-(4-((2R,4R,5S,6R)-4-amino-6-(tert-butyl)-5-hydroxytetrahydro-2H-pyran-2-yl)pyridin-3-yl)-6-(2,6-difluoro-4-(methylsulfonyl)phenyl)-5-fluoropicolinamide]
0.0449 | 1.17 | 1.29 | C[C@H]1O[C@@H](c2ccncc2NC(=O)c2ccc(F)c(-c3c(F)cc(S(C)(=O)=O)cc3F)n2)C[C@@H](N)[C@]1(C)O [Example 285, N-(4-((2R,4R,5S,6R)-4-amino-5-hydroxy-5,6-dimethyltetrahydro-2H-pyran-2-yl)pyridin-3-yl)-6-(2,6-difluoro-4-(methylsulfonyl)phenyl)-5-fluoropicolinamide]
0.0064 | 0.14 | 0.225 | CC1(C)C[C@H](N)C[C@@H](c2ccncc2NC(=O)c2ccc(F)c(-c3c(F)cccc3F)n2)O1 [Example 299, N-(4-((2S,4R)-4-amino-6,6-dimethyltetrahydro-2H-pyran-2-yl)pyridin-3-yl)-6-(2,6-difluorophenyl)-5-fluoropicolinamide]
0.0115 | 0.69 | 3.3 | CC(C)[C@@H]1C[C@H](N)C[C@H](c2ccncc2NC(=O)c2ccc(F)c(-c3c(F)cccc3F)n2)O1 [Example 300, N-(4-((2R,4S,6S)-4-amino-6-isopropyltetrahydro-2H-pyran-2-yl)pyridin-3-yl)-6-(2,6-difluorophenyl)-5-fluoropicolinamide]
0.0846 |  | 2.3 | C[C@H]1O[C@@H](c2ccncc2NC(=O)c2ccc(F)c(-c3ccc(N)nc3F)n2)C[C@@H](N)[C@]1(C)O [Example 311, 6′-amino-N-(4-((2R,4R,5S,6R)-4-amino-5-hydroxy-5,6-dimethyltetrahydro-2H-pyran-2-yl)pyridin-3-yl)-2′,3-difluoro-2,3′-bipyridine-6-carboxamide]
0.0273 | 3.76 |  | CNC(=O)c1cc(F)c(-c2nc(C(=O)Nc3cnccc3[C@H]3C[C@@H](N)[C@](C)(O)[C@@H](C)O3)ccc2F)c(F)c1 [Example 333, N-(4-((2R,4R,5S,6R)-4-amino-5-hydroxy-5,6-dimethyltetrahydro-2H-pyran-2-yl)pyridin-3-yl)-6-(2,6-difluoro-4-(methylcarbamoyl)phenyl)-5-fluoropicolinamide]
0.0627 | 0.76 |  | C[C@H]1O[C@@H](c2ccncc2NC(=O)c2ccc(F)c(-c3c(F)cc(C(=O)N(C)C)cc3F)n2)C[C@@H](N)[C@]1(C)O [Example 334, N-(4-((2R,4R,5S,6R)-4-amino-5-hydroxy-5,6-dimethyltetrahydro-2H-pyran-2-yl)pyridin-3-yl)-6-(4-(dimethylcarbamoyl)-2,6-difluorophenyl)-5-fluoropicolinamide]
0.0039 | 0.18 |  | CC[C@H]1O[C@@H](c2ccncc2NC(=O)c2ccc(F)c(-c3c(F)cc(C(C)(C)O)cc3F)n2)C[C@@H](N)[C@@H]1O [Example 336, N-(4-((2R,4R,5S,6R)-4-amino-6-ethyl-5-hydroxytetrahydro-2H-pyran-2-yl)pyridin-3-yl)-6-(2,6-difluoro-4-(2-hydroxypropan-2-yl)phenyl)-5-fluoropicolinamide]
0.0021 | 0.94 |  | CC(=O)Nc1cc(F)c(-c2nc(C(=O)Nc3cnccc3[C@H]3C[C@@H](N)[C@](C)(O)[C@@H](C)O3)ccc2F)c(F)c1 [Example 338, 6-(4-acetamido-2,6-difluorophenyl)-N-(4-((2R,4R,5S,6R)-4-amino-5-hydroxy-5,6-dimethyltetrahydro-2H-pyran-2-yl)pyridin-3-yl)-5-fluoropicolinamide]
0.0035 | 0.23 |  | CC(C)C(=O)Nc1cc(F)c(-c2nc(C(=O)Nc3cnccc3[C@H]3C[C@@H](N)[C@](C)(O)[C@@H](C)O3)ccc2F)c(F)c1 [Example 339, N-(4-((2R,4R,5S,6R)-4-amino-5-hydroxy-5,6-dimethyltetrahydro-2H-pyran-2-yl)pyridin-3-yl)-6-(2,6-difluoro-4-isobutyramidophenyl)-5-fluoropicolinamide]
